# In ChEMBL document CHEMBL1201862, “PubChem BioAssay data set” (2004):
#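 Exposure lasted 48 hours, with cells grown in 96-well plates and compounds tested at five concentrations. GI50 marks 50% less growth.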 Active and inactive are the calls of the source. No stated cut-off is given here; in the data, active = GI50 up to about 1.1 µM and inactive = higher.
# Columns and labels:
# Assay in all cases: DTP human tumour cell line panel, 48 h
# SN12C = tested on: SN12C
# PC-3 = tested on: PC-3
# SNB-19 = tested on: SNB-19
# HT-29 = tested on: HT-29
# NCI-H460 = tested on: NCI-H460
# EKVX = tested on: EKVX
# HCT-15 = tested on: HCT-15
# SF-268 = tested on: SF-268
# 786-0 = tested on: 786-0
# HOP-92 = tested on: HOP-92
# CAKI-1 = tested on: CAKI-1
# HL-60 = tested on: HL-60
# LOX IMVI = tested on: LOX IMVI
# RXF 393 = tested on: RXF 393
# MCF7 = tested on: MCF7
# SR = tested on: SR
# UO-31 = tested on: UO-31
# OVCAR-3 = tested on: OVCAR-3
# UACC-62 = tested on: UACC-62
# SK-OV-3 = tested on: SK-OV-3
SMILES,GI50 (SN12C),GI50 (PC-3),GI50 (SNB-19),GI50 (HT-29),GI50 (NCI-H460),GI50 (EKVX),GI50 (HCT-15),GI50 (SF-268),GI50 (786-0),GI50 (HOP-92),GI50 (CAKI-1),GI50 (HL-60),GI50 (LOX IMVI),GI50 (RXF 393),GI50 (MCF7),GI50 (SR),GI50 (UO-31),GI50 (OVCAR-3),GI50 (UACC-62),GI50 (SK-OV-3)
O=c1[nH]c(=O)n(COCc2ccccc2)c2ccsc12,> 100 µM (inactive),61.9 µM (inactive),73.8 µM (inactive),> 100 µM (inactive),55.8 µM (inactive),22.2 µM (inactive),29.2 µM,> 100 µM (inactive),> 100 µM (inactive),15.8 µM (inactive),> 100 µM (inactive),> 10 µM (inactive),> 100 µM (inactive),> 100 µM (inactive),> 100 µM (inactive),88.7 µM (inactive),–,–,–,–
S=C1CSc2c(ccc3ccccc23)N1,> 100 µM (inactive),> 100 µM (inactive),> 100 µM (inactive),> 100 µM (inactive),> 100 µM (inactive),21.7 µM (inactive),> 100 µM,> 100 µM (inactive),> 100 µM (inactive),–,> 100 µM (inactive),> 100 µM (inactive),> 100 µM (inactive),35.9 µM (inactive),> 100 µM (inactive),> 100 µM (inactive),> 100 µM (inactive),> 100 µM (inactive),> 100 µM (inactive),> 100 µM (inactive)
CN1C2CC(=O)CC1[C@@H]1OC(c3ccccc3)O[C@H]21 (stereo partly drawn),> 100 µM (inactive),> 100 µM (inactive),> 100 µM (inactive),> 100 µM (inactive),> 100 µM (inactive),> 100 µM (inactive),> 100 µM,> 100 µM (inactive),> 100 µM (inactive),–,> 100 µM (inactive),> 100 µM (inactive),> 100 µM (inactive),> 100 µM (inactive),> 100 µM (inactive),> 100 µM (inactive),> 100 µM (inactive),> 100 µM (inactive),> 100 µM (inactive),> 100 µM (inactive)
S=C(NCCc1ccccn1)N/N=C/c1ccccn1,1.11 µM (active),0.0115 µM (active),2.28 µM (inactive),–,0.501 µM (active),0.0243 µM (active),–,0.301 µM (active),0.0653 µM (active),–,< 0.01 µM (active),< 0.01 µM (active),< 0.0373 µM (active),–,< 0.01 µM (active),< 0.01 µM (active),–,< 0.01 µM (active),0.0841 µM (active),1.12 µM (active)
O=Cc1cccc2c1Oc1c(cccc1C(=O)O)S2,85.3 µM (inactive),> 100 µM (inactive),87.7 µM (inactive),> 100 µM (inactive),50.4 µM (inactive),70.1 µM (inactive),35.4 µM,48.3 µM (inactive),76.2 µM (inactive),70.8 µM (inactive),81.1 µM (inactive),–,45.7 µM (inactive),–,89.3 µM (inactive),< 0.01 µM (active),58.3 µM (inactive),33.3 µM (inactive),> 100 µM (inactive),61.8 µM (inactive)
CSc1c(C)[n+]([O-])c2cc(Cl)c(Cl)cc2[n+]1[O-],16.4 µM (inactive),18.6 µM (inactive),> 86.9 µM (inactive),18.1 µM (inactive),37.9 µM (inactive),16.3 µM (inactive),17 µM,18.5 µM (inactive),17.3 µM (inactive),16.2 µM (inactive),18.2 µM (inactive),–,17.9 µM (inactive),21.5 µM (inactive),19 µM (inactive),3.13 µM (inactive),16.3 µM (inactive),11.5 µM (inactive),14.9 µM (inactive),> 100 µM (inactive)
COc1ccc(-n2c(=O)n(C)c(=O)n2-c2ccc(OC)cc2)cc1,> 100 µM (inactive),> 100 µM (inactive),> 100 µM (inactive),> 100 µM (inactive),> 100 µM (inactive),> 100 µM (inactive),> 100 µM,> 100 µM (inactive),> 100 µM (inactive),> 100 µM (inactive),> 100 µM (inactive),> 100 µM (inactive),59.2 µM (inactive),–,> 100 µM (inactive),> 100 µM (inactive),> 100 µM (inactive),> 100 µM (inactive),> 100 µM (inactive),> 100 µM (inactive)
COC(=O)CN(CC1O[C@@H]2OC(C)(C)O[C@@H]2C1NC(C)=O)C(=O)OCc1ccccc1 (stereo partly drawn),> 100 µM (inactive),> 100 µM (inactive),> 100 µM (inactive),> 100 µM (inactive),> 100 µM (inactive),> 100 µM (inactive),> 100 µM,> 100 µM (inactive),> 100 µM (inactive),> 100 µM (inactive),> 100 µM (inactive),> 100 µM (inactive),> 100 µM (inactive),–,> 100 µM (inactive),> 100 µM (inactive),> 100 µM (inactive),> 100 µM (inactive),> 100 µM (inactive),> 100 µM (inactive)
CCCCCCc1cc2cc(C(=O)Nc3ccccc3F)c(=N)oc2cc1O,–,11.2 µM (inactive),8.83 µM (inactive),24.7 µM (inactive),7.62 µM (inactive),10.4 µM (inactive),3.93 µM,12.4 µM (inactive),11.9 µM (inactive),–,6.32 µM (inactive),6.24 µM (inactive),5.24 µM (inactive),–,3.85 µM (inactive),2.83 µM (inactive),4.27 µM (inactive),6.38 µM (inactive),6.55 µM (inactive),12.5 µM (inactive)
COc1ccc(/N=N/C(=N\c2ccccc2)c2ccc(N(CCC#N)CCC#N)cc2)cc1,88.9 µM (inactive),40.6 µM (inactive),> 100 µM (inactive),47.9 µM (inactive),36.5 µM (inactive),27.4 µM (inactive),81.3 µM,97.7 µM (inactive),60.4 µM (inactive),> 100 µM (inactive),80.7 µM (inactive),–,–,19.9 µM (inactive),22.5 µM (inactive),25.9 µM (inactive),80.9 µM (inactive),18 µM (inactive),51.5 µM (inactive),> 100 µM (inactive)
CN(C)CCCn1cnc2cc(Cl)c(Cl)cc21,43.8 µM (inactive),> 100 µM (inactive),> 100 µM (inactive),72.3 µM (inactive),91.8 µM (inactive),> 100 µM (inactive),> 100 µM,> 100 µM (inactive),59.6 µM (inactive),–,64.3 µM (inactive),> 100 µM (inactive),59.2 µM (inactive),61.2 µM (inactive),> 100 µM (inactive),93.5 µM (inactive),70 µM (inactive),> 100 µM (inactive),27.7 µM (inactive),> 100 µM (inactive)
CCCCCCCCCCCCCCCCNC(=O)/C(O)=C/C(=O)c1ccc(C)cc1,> 10 µM (inactive),3.32 µM (inactive),–,> 10 µM (inactive),> 10 µM (inactive),> 10 µM (inactive),> 10 µM,> 10 µM (inactive),> 10 µM (inactive),–,> 10 µM (inactive),8.05 µM (inactive),> 10 µM (inactive),> 10 µM (inactive),> 10 µM (inactive),> 10 µM (inactive),> 10 µM (inactive),> 10 µM (inactive),–,> 10 µM (inactive)
Cc1cc2c(cc1-c1cc3c(cc1C)C(C(C)C)=C(O)C(=O)/C3=C\Nc1ccccn1)/C(=C/Nc1ccccn1)C(=O)C(O)=C2C(C)C,74.6 µM (inactive),41.7 µM (inactive),52.6 µM (inactive),–,43.2 µM (inactive),37.8 µM (inactive),33.9 µM,30.3 µM (inactive),52.2 µM (inactive),> 100 µM (inactive),45.8 µM (inactive),27.4 µM (inactive),35.4 µM (inactive),45.5 µM (inactive),52.5 µM (inactive),42.7 µM (inactive),–,34.3 µM (inactive),65 µM (inactive),–
Cc1ccc2nc(Cl)c(/C=N/N3C(=O)/C(=C/c4ccccc4S)N=C3c3ccccc3)cc2c1,35.7 µM (inactive),38.3 µM (inactive),52.8 µM (inactive),42.8 µM (inactive),31.4 µM (inactive),59.7 µM (inactive),37.8 µM,36.6 µM (inactive),54 µM (inactive),73.6 µM (inactive),44.6 µM (inactive),15.5 µM (inactive),34.8 µM (inactive),–,26.9 µM (inactive),7.96 µM (inactive),21.9 µM (inactive),4.8 µM (inactive),38.7 µM (inactive),22.2 µM (inactive)
CCOC(=O)c1c(NC(=O)c2ccc(OC)cc2)sc2c1CCCC2,> 100 µM (inactive),> 100 µM (inactive),> 100 µM (inactive),> 100 µM (inactive),> 100 µM (inactive),> 100 µM (inactive),–,> 100 µM (inactive),> 100 µM (inactive),–,> 100 µM (inactive),2.25 µM (inactive),–,> 100 µM (inactive),> 100 µM (inactive),> 100 µM (inactive),> 100 µM (inactive),> 100 µM (inactive),> 100 µM (inactive),–
O=S1(=O)OCCOS(=O)(=O)C1S(=O)(=O)c1cccc2ccccc12,> 100 µM (inactive),42.3 µM (inactive),> 10 µM (inactive),52.7 µM (inactive),54.6 µM (inactive),> 100 µM (inactive),> 100 µM,–,99.5 µM (inactive),> 100 µM (inactive),> 100 µM (inactive),68.5 µM (inactive),46.7 µM (inactive),–,> 100 µM (inactive),> 100 µM (inactive),> 100 µM (inactive),> 100 µM (inactive),–,–
